# Experimental data: ChEMBL document CHEMBL6177998, “Rational Design of Dual Degraders by Incorporating Molecular Glue Structural Features into PROTAC Degraders” (J Med Chem, 2025)
# Active and inactive are the calls of the source. No cut-off for these calls is given here.
# Key:
# [1] = target: T1, Protein cereblon/Androgen receptor (Homo sapiens, UniProt P10275+Q96SW2); test: PROTAC activity at CRBN/AR in human VCaP cells assessed as induction of AR degradation at 0.1 uM incubated for 24 hrs by Western blot analysis relative to control; type: cell-based
# Target sequence in this assay (P10275 whole entry, looked up): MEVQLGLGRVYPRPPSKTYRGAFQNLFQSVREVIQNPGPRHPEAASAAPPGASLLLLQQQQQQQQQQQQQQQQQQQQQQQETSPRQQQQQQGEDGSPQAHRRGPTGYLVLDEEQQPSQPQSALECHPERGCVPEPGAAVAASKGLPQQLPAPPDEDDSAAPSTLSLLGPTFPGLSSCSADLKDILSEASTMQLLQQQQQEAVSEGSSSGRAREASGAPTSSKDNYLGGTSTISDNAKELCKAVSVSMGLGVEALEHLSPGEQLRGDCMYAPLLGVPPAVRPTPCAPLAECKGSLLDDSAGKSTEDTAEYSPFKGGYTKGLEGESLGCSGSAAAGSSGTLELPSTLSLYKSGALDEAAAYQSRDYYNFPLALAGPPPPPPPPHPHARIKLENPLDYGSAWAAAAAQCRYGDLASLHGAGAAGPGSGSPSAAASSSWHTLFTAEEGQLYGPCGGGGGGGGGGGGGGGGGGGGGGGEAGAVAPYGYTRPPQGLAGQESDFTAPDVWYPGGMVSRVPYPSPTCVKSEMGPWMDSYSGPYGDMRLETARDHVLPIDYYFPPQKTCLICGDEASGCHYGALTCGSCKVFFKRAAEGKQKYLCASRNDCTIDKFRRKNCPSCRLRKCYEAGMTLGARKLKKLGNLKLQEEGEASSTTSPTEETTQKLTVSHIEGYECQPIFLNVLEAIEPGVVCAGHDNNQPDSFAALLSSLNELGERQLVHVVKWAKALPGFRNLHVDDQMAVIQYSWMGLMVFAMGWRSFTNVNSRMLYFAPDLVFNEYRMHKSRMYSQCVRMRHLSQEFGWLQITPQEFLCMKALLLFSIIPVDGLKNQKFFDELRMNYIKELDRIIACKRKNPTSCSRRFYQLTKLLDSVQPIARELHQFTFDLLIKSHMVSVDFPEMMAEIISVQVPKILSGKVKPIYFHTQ
# Target sequence in this assay (Q96SW2 whole entry, looked up): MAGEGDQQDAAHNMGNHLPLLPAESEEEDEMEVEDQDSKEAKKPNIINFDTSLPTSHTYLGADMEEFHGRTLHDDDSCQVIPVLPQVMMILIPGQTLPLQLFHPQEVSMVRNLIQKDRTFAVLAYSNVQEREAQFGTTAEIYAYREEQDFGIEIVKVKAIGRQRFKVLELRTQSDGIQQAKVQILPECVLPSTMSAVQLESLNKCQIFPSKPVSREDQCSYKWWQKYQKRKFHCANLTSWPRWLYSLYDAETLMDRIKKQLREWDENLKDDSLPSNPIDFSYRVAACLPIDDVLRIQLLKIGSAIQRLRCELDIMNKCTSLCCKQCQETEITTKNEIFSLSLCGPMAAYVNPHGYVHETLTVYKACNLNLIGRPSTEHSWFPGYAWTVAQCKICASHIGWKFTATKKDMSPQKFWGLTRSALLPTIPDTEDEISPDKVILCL
# [2] = target: T1, Protein cereblon/Androgen receptor; test: PROTAC activity at CRBN/AR in human 22Rv1 cells assessed as induction of AR degradation at 20 nM incubated for 6 hrs by Western blot analysis (reference value: 0 %); type: cell-based
# Target sequence in this assay (P10275 whole entry, looked up): as the sequence (P10275 whole entry, looked up) above
# Target sequence in this assay (Q96SW2 whole entry, looked up): as the sequence (Q96SW2 whole entry, looked up) above
# [3] = target: T1, Protein cereblon/Androgen receptor; test: PROTAC activity at CRBN/AR in human 22Rv1 cells assessed as induction of AR degradation at 20 nM incubated for 18 hrs by Western blot analysis (reference value: 0 %); type: cell-based
# Target sequence in this assay (P10275 whole entry, looked up): as the sequence (P10275 whole entry, looked up) above
# Target sequence in this assay (Q96SW2 whole entry, looked up): as the sequence (Q96SW2 whole entry, looked up) above
# [4] = target: T1, Protein cereblon/Androgen receptor; test: PROTAC activity at CRBN/AR in human 22Rv1 cells assessed as induction of AR degradation at 20 nM incubated for 36 hrs by Western blot analysis (reference value: 0 %); type: cell-based
# Target sequence in this assay (P10275 whole entry, looked up): as the sequence (P10275 whole entry, looked up) above
# Target sequence in this assay (Q96SW2 whole entry, looked up): as the sequence (Q96SW2 whole entry, looked up) above
# [5] = system: Protein cereblon/Androgen receptor (Homo sapiens), P10275+Q96SW2 [UNDEFINED MUTATION]; test: PROTAC activity at CRBN/Androgen receptor splice variant 7 in human 22Rv1 cells assessed as induction of AR-V7 degradation at 20 nM incubated for 24 hrs by Western blot analysis (reference value: 0%); type: cell-based
# Protein cereblon/Androgen receptor (Homo sapiens), P10275+Q96SW2 [UNDEFINED MUTATION], sequence (P10275 whole entry, looked up, change not shown, canonical isoform): as the sequence (P10275 whole entry, looked up) above
# Protein cereblon/Androgen receptor (Homo sapiens), P10275+Q96SW2 [UNDEFINED MUTATION], sequence (Q96SW2 whole entry, looked up, change not shown, canonical isoform): as the sequence (Q96SW2 whole entry, looked up) above
# [6] = target: T2, Protein cereblon/Eukaryotic peptide chain release factor GTP-binding subunit ERF3A (Homo sapiens, UniProt Q96SW2+P15170); test: Molecular glue activity at CRBN/GSPT1 in human 22Rv1 cells assessed as induction of GSPT1 degradation at 20 nM incubated for 36 hrs by Western blot analysis (reference value: 0 %); type: cell-based
# T2 sequence (P15170 whole entry, looked up, canonical isoform): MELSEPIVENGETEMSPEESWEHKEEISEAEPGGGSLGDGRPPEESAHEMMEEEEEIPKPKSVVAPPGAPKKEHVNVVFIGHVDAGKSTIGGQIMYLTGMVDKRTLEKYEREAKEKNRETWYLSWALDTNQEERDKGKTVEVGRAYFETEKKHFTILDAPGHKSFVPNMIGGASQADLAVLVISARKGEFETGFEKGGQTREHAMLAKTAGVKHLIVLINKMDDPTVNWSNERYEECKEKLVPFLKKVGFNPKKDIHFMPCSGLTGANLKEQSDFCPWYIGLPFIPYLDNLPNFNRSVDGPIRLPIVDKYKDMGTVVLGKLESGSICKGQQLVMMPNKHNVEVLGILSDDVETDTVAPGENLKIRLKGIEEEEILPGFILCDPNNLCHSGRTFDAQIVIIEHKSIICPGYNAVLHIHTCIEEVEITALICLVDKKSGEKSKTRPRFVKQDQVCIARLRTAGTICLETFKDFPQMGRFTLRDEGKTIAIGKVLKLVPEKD
# T2 sequence (Q96SW2 whole entry, looked up, canonical isoform): as the sequence (Q96SW2 whole entry, looked up) above
# [7] = system: Protein cereblon/Androgen receptor (Homo sapiens), P10275+Q96SW2 [UNDEFINED MUTATION]; test: (§1) PROTAC activity at CRBN/Androgen receptor splice variant 7 in human 22Rv1 cells assessed as induction of AR-V7 degradation incubated for 24 hrs by Western blot analysis; type: cell-based
# [8] = target: T1, Protein cereblon/Androgen receptor; test: as §1; type: cell-based
# Target sequence in this assay (P10275 whole entry, looked up, change not shown): as the sequence (P10275 whole entry, looked up) above
# Target sequence in this assay (Q96SW2 whole entry, looked up, change not shown): as the sequence (Q96SW2 whole entry, looked up) above
# [9] = system: Protein cereblon/Androgen receptor (Homo sapiens), P10275+Q96SW2 [UNDEFINED MUTATION]; test: (§2) PROTAC activity at CRBN/Androgen receptor splice variant 7 in human VCaP cells assessed as induction of AR-V7 degradation incubated for 24 hrs by Western blot analysis; type: cell-based
# [10] = target: T1, Protein cereblon/Androgen receptor; test: as §2; type: cell-based
# Target sequence in this assay (P10275 whole entry, looked up, change not shown): as the sequence (P10275 whole entry, looked up) above
# Target sequence in this assay (Q96SW2 whole entry, looked up, change not shown): as the sequence (Q96SW2 whole entry, looked up) above
# [11] = target: T1, Protein cereblon/Androgen receptor; test: PROTAC activity at CRBN/AR in human LNCaP cells assessed as induction of AR degradation incubated for 24 hrs by Western blot analysis; type: cell-based
# [12] = target: T1, Protein cereblon/Androgen receptor; test: PROTAC activity at CRBN/AR in human VCaP cells assessed as induction of AR degradation at 20 nM by Western blot analysis; type: cell-based; details: time 1-36 hrs
# Target sequence in this assay (P10275 whole entry, looked up): as the sequence (P10275 whole entry, looked up) above
# Target sequence in this assay (Q96SW2 whole entry, looked up): as the sequence (Q96SW2 whole entry, looked up) above
# [13] = target: T2, Protein cereblon/Eukaryotic peptide chain release factor GTP-binding subunit ERF3A; test: Molecular glue activity at CRBN/GSPT1 in human VCaP cells assessed as induction of GSPT1 degradation by measuring maximal efficacy incubated for 24 hrs by Western blot analysis relative to control; type: cell-based
# CWR22R [14] = test: Effect on androgen receptor mRNA expression in human 22Rv1 cells at 1 to 10 nM incubated for 24 hrs by RT-PCR analysis; type: functional, cell-based; details: dose 1-10 nM
# [15] = system: Protein cereblon/Androgen receptor (Homo sapiens), P10275+Q96SW2 [UNDEFINED MUTATION]; test: PROTAC activity at CRBN/Androgen receptor splice variant 7 in human VCaP cells assessed as induction of AR-V7 degradation at 50 nM preincubated with MLN4924 followed by compound addition and measured after 12 hrs by Western blot analysis; type: cell-based
# [16] = target: T1, Protein cereblon/Androgen receptor; test: PROTAC activity at CRBN/AR in human 22Rv1 cells assessed as induction of AR degradation at 20 uM preincubated with EPI-002 for 4 hrs followed by compound addition and measured after 36 hrs by Western blot analysis; type: cell-based
# Target sequence in this assay (P10275 whole entry, looked up): as the sequence (P10275 whole entry, looked up) above
# Target sequence in this assay (Q96SW2 whole entry, looked up): as the sequence (Q96SW2 whole entry, looked up) above
# [17] = system: Protein cereblon/Androgen receptor (Homo sapiens), P10275+Q96SW2 [UNDEFINED MUTATION]; test: PROTAC activity at CRBN/Androgen receptor splice variant 7 in human 22Rv1 cells assessed as induction of AR-V7 degradation at 20 uM preincubated with EPI-002 for 4 hrs followed by compound addition and measured after 36 hrs by Western blot analysis; type: cell-based
# [18] = system: Protein cereblon/Androgen receptor (Homo sapiens), P10275+Q96SW2 [UNDEFINED MUTATION]; test: PROTAC activity at CRBN/Androgen receptor splice variant 7 in human 22Rv1 cells assessed as induction of AR-V7 degradation at […] preincubated with thalidomide followed by compound addition and measured after 12 hrs by Western blot analysis; type: cell-based
# [19] = target: T2, Protein cereblon/Eukaryotic peptide chain release factor GTP-binding subunit ERF3A; test: Molecular glue activity at CRBN/GSPT1 in human 22Rv1 cells assessed as induction of GSPT1 degradation at 20 uM preincubated with EPI-002 for 4 hrs followed by compound addition and measured after 36 hrs by Western blot analysis; type: cell-based
# [20] = target: Protein cereblon/Zinc finger protein Aiolos (Homo sapiens) (UniProt Q96SW2+Q9UKT9); test: Molecular glue activity at CRBN/IKZF3 in human 22Rv1 cells assessed as induction of IKZF3 degradation at 1 uM incubated for 6 hrs by Western blot analysis; type: cell-based
# Protein cereblon/Zinc finger protein Aiolos (Homo sapiens), sequence (Q96SW2 whole entry, looked up): as above
# Protein cereblon/Zinc finger protein Aiolos (Homo sapiens), sequence (Q9UKT9 whole entry, looked up): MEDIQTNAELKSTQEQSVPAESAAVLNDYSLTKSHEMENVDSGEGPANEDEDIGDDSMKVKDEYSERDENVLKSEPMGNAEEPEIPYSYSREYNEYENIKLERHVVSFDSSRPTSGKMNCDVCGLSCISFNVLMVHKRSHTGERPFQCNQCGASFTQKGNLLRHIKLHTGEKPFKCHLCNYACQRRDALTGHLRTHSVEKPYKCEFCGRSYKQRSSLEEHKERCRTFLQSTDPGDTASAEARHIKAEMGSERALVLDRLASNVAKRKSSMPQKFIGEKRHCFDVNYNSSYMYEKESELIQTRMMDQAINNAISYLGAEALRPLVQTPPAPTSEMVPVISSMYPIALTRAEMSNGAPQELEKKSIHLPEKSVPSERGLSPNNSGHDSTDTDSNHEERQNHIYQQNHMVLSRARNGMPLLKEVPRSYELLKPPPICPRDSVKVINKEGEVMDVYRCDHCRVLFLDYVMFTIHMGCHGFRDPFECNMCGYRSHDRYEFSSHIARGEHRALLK
# VCaP = test: Antiproliferative activity against AR-dependent human VCaP cells assessed as cell growth inhibition incubated for 72 hrs by Celltiter-lumi luminescent cell viability assay; type: functional, cell-based
# [21] = Selectivity ratio of IC50 for antiproliferative activity against AR-independent human DU-145 cells assessed as cell growth inhibition to IC50 for antiproliferative activity against AR-dependent human VCaP cells assessed as cell growth inhibition; type: functional
# [22] = Cytotoxicity against human THLE-2 cells assessed as cell growth inhibition incubated for 72 hrs by Celltiter-lumi luminescent cell viability assay; type: toxicity, cell-based
# CWR22R [23] = test: Downregulation of GTPBP6 gene expression in human 22Rv1 cells at 3 nM incubated for 24 hrs by Volcano plot analysis; type: functional, cell-based
# CWR22R [24] = test: Downregulation of MT-ATP8 gene expression in human 22Rv1 cells at 3 nM incubated for 24 hrs by Volcano plot analysis; type: functional, cell-based
# CWR22R [25] = test: Downregulation of CCNB1IP1 gene expression in human 22Rv1 cells at 3 nM incubated for 24 hrs by Volcano plot analysis; type: functional, cell-based
# CWR22R [26] = test: Downregulation of RCC2 gene expression in human 22Rv1 cells at 3 nM incubated for 24 hrs by Volcano plot analysis; type: functional, cell-based
# [27] = target: T1, Protein cereblon/Androgen receptor; test: PROTAC activity at CRBN/AR in human LNCaP cells assessed as decrease in PSA mRNA level at 10 to 100 nM incubated for 24 hrs by qRT-PCR analysis; type: cell-based; details: dose 10-100 nM
# [28] = target: T1, Protein cereblon/Androgen receptor; test: PROTAC activity at CRBN/AR in human LNCaP cells assessed as decrease in TMPRSS2 mRNA level at 10 to 100 nM incubated for 24 hrs by qRT-PCR analysis; type: cell-based; details: dose 10-100 nM
# CWR22R [29] = test: Cell cycle arrest in human 22Rv1 cells assessed as accumulation of cells at G1 phase at 3 nM incubated for 24 hrs by flow cytometric analysis (reference value: 49.7 %); type: functional
# [30] = target: T2, Protein cereblon/Eukaryotic peptide chain release factor GTP-binding subunit ERF3A; test: Molecular glue activity at CRBN/GSPT1 in human Enzalutamide-resistant LNCaP cells assessed as induction of GSPT1 degradation at 1 to 300 nM by Western blot analysis; type: cell-based; details: dose 1-300 nM
# [31] = Clearance in male ICR mouse at 2 mg/kg, iv by LC-MS/MS analysis; type: ADME, organism-based; details: in vivo
# [32] = AUC in male ICR mouse at 10 mg/kg, po by LC-MS/MS analysis; type: ADME, organism-based; details: in vivo
# Mus musculus = test: In vivo inhibition of AR transcriptional activity in male NOD SCID mouse model xenografted with human LNCaP cells assessed as reduction in PSA level in tumor at 20 mg/kg, po administered daily for 26 days by ELISA; type: functional, organism-based; details: time 26.0 day
smiles,measurement,setting,value
COc1ccc(C(C)(C)c2cc(Cl)c(OCC3CCN(C(=O)CCCCCNc4ccc5c(c4)C(=O)N(C4CCC(=O)NC4=O)C5=O)CC3)c(C#N)c2)cc1 (stereo not given),Activity,[1],92.2%
same,Activity,[2],49.7%
same,Activity,[3],84.1%
same,Activity,[4],92.1%
same,Activity,[5],95.5%
same,Activity,[6],98.5%
same,Activity,[7],Dose-dependent-effect
same,DC50,[8],3 nM
same,Activity,[9],Dose-dependent-effect
same,DC50,[10],2.5 nM
same,Activity,[11],Dose-dependent-effect
same,DC50,[11],15.6 nM
same,Activity,[12],Time-dependent-effect
same,Emax,[13],96%
same,Activity,CWR22R [14],Minimal_effect
same,Activity,[15],inactive
same,Activity,[16],inactive
same,Activity,[17],inactive
same,Activity,[18],inactive
same,Activity,[19],Active
same,Activity,[20],inactive
same,IC50,VCaP,1.5 nM
same,Ratio IC50,[21],588
same,IC50 at 72 h,[22],> 10000 nM
same,Activity,CWR22R [23],Active
same,Activity,CWR22R [24],Active
same,Activity,CWR22R [25],Active
same,Activity,CWR22R [26],Active
same,Activity,[27],Active
same,Activity,[28],Active
same,Activity,CWR22R [29],55.6%
same,Activity,[30],Active
same,clearance,[31],18 mL/min/kg
same,AUC,[32],1040 ng·h/mL
same,inhibition,Mus musculus,Active; Superior Activity Than Enzalutamide Treatment Group Observed
